Test results as given in the PolyMetriX glass transition set.

Compound	glass transition temperature
*c1cc(CCOCCOC)c(*)[nH]1 (repeat unit)	-43.00 °C
*Oc1ccc(CC(NC(=O)Cc2ccc(OC(=O)COCCOCC(*)=O)cc2)C(=O)OCCCCCC)cc1 (repeat unit)	31.00 °C
*CCN(CCOC(=O)CCCCC(=O)O*)c1ccc(/C=N/N(c2ccccc2)c2ccccc2)cc1 (repeat unit)	54.00 °C
*CC(CO*)(CS(=O)(=O)CCCC)CS(=O)(=O)CCCC (repeat unit)	66.00 °C
*Oc1ccc(CC(NC(=O)CCc2ccc(OC(=O)CCCC(*)=O)cc2)C(=O)OCC)cc1 (repeat unit)	70.00 °C
*OC(C)CC(*)=O (repeat unit)	3.40 °C
*O[Si](*)(C)c1ccc(C)cc1 (repeat unit)	-17.00 °C
*CCOc1ccc(S(=O)(=O)c2ccc(OCCOP(=O)(O*)Oc3ccccc3)cc2)cc1 (repeat unit)	49.00 °C
*O[Si](*)(C)CCCn1c2ccccc2c2ccccc21 (repeat unit)	55.5 °C
*c1ccc(-c2ccc([Si](*)(C)C)s2)s1 (repeat unit)	45.00 °C
*CC(*)C(=O)c1ccc(Br)c(OC)c1 (repeat unit)	44.00 °C
*/C(C#N)=C/c1cc(OCCCCCCCCCCCC)c(/C=C(\C#N)c2cc(OCCCCCCCCCCCC)c(*)cc2OC)cc1OC (repeat unit)	181.00 °C
*CCCCCOc1ccc(/C=C/C(=O)OCCN(CCOC(=O)/C=C/c2ccc(O*)cc2)c2ccc(/N=N/c3ccc([N+](=O)[O-])cc3)cc2)cc1 (repeat unit)	92.00 °C
*Oc1cc(CCCCCCCCCCC)cc(OC(=O)c2cccc(C(*)=O)c2)c1 (repeat unit)	34.50 °C
*CC(*)(CC(=O)OC1CCC1)C(=O)OC1CCC1 (repeat unit)	60.00 °C
*CC(*)(C)C(=O)OCCC(F)(F)C(F)(F)C(F)(F)C(F)(F)C(F)(F)C(F)(F)C(F)(F)C(F)(F)F (repeat unit)	47.00 °C
*Nc1ccc(Cc2ccc(NC(=O)NCCCCCCCCCCCCNC(*)=O)cc2)cc1 (repeat unit)	51.00 °C
*CCN(*)C(=O)C(OC)(c1ccccc1)C(F)(F)F (repeat unit)	89.00 °C
*C1C2CC(C)C(C2)C1* (repeat unit)	350.00 °C
*c1ccc2oc(-c3cccc(-c4nc5cc(C(*)(C(F)(F)F)C(F)(F)F)ccc5o4)n3)nc2c1 (repeat unit)	329.00 °C
*CC1CCC(CNC(=O)CCCCC(=O)N*)CC1 (repeat unit)	113.00 °C
*CCc1ccc(*)c(C#N)c1 (repeat unit)	90.00 °C
*CC(*)C(=O)OCC(COC(=O)c1ccccc1)(COC(=O)c1ccccc1)COC(=O)c1ccccc1 (repeat unit)	48.00 °C
*CCCN(C)c1ccc(C(=O)c2ccc(N(*)C)cc2)cc1 (repeat unit)	101.00 °C
*/N=N/c1ccc(C(=O)NCCCCNC(=O)c2ccc(*)cc2)cc1 (repeat unit)	215.00 °C
*CC(*)(C)C(=O)OCCCCCCCCOc1ccc(/N=N/c2ccc(C#N)cc2)cc1 (repeat unit)	35.00 °C
*Nc1ccc(C(c2ccc(NC(=O)c3ccc(-c4ccc(C(*)=O)cc4)cc3)cc2)(P2(=O)Oc3ccccc3-c3ccccc32)P2(=O)Oc3ccccc3-c3ccccc32)cc1 (repeat unit)	251.00 °C
*CC(OC(C)=O)C(CCC(C)(O)C=C)C(*)(C)C (repeat unit)	85.00 °C
*Oc1ccc(CC(NC(=O)CCc2ccc(OC(=O)COCCOCC(*)=O)cc2)C(=O)OCCCC)cc1 (repeat unit)	45.00 °C
*CC(*)(C)C(=O)OCC(=O)N1CCCC1 (repeat unit)	144.00 °C

Continued, values first:

glass transition temperature	Compound
223.00 °C	*c1c(C)cc(Cc2cc(C)c(N3C(=O)c4cccc(Oc5ccc(C(C)(C)c6ccc(Oc7cccc8c7C(=O)N(*)C8=O)cc6)cc5)c4C3=O)c(C)c2)cc1C (repeat unit)
148.00 °C	*Oc1ccc(S(=O)(=O)c2ccc(Oc3ccc(C(c4ccc(*)cc4)(C(F)(F)F)C(F)(F)F)cc3)cc2C(O)(C(F)(F)F)C(F)(F)F)c(C(O)(C(F)(F)F)C(F)(F)F)c1 (repeat unit)
227.10 °C	*c1ccc(Sc2ccc(Sc3ccc(Sc4ccc(N5C(=O)c6ccc(-c7ccc8c(c7)C(=O)N(*)C8=O)cc6C5=O)cc4)cc3)cc2)cc1 (repeat unit)
205.00 °C	*c1ccc(Oc2ccc(C(=O)c3ccc(Oc4ccc(-c5cc(*)n(-c6ccccc6)n5)cc4)cc3)cc2)cc1 (repeat unit)
244.00 °C	*c1ccc(-c2ccc(-c3ccc(-c4ccc(-c5ccc6c(c5)C(=O)N(c5ccc(Oc7ccc(N8C(=O)c9ccc(*)cc9C8=O)cc7)cc5)C6=O)cc4)cc3)cc2)cc1 (repeat unit)
84.00 °C	*CC(O)CN(C)S(=O)(=O)c1ccc(-c2ccc(S(=O)(=O)N(C)CC(O)COc3ccc(O*)cc3)cc2)cc1 (repeat unit)
289.00 °C	*c1ccc(Oc2ccc(-c3nc4cc(Oc5ccc(NC(=O)c6ccc7c(c6)C(=O)N(c6ccc(C(c8ccc(N9C(=O)c%10ccc(C(=O)Nc%11ccc(Oc%12ccc%13nc(-c%14ccccc%14)c(*)nc%13c%12)cc%11)cc%10C9=O)cc8)(C(F)(F)F)C(F)(F)F)cc6)C7=O)cc5)ccc4nc3-c3ccccc3)cc2)cc1 (repeat unit)
119.00 °C	*Oc1ccc(OC(=O)c2cccc(Oc3cccc(C(*)=O)c3)c2)cc1 (repeat unit)
240.00 °C	*CCCc1ccc(-c2c(-c3ccccc3)cc(-c3cccc(-c4cc(-c5ccccc5)c(-c5ccc(*)cc5)c(-c5ccccc5)c4-c4ccccc4)c3)c(-c3ccccc3)c2-c2ccccc2)cc1 (repeat unit)
140.00 °C	*c1ccc(NC(=O)c2ccc(OCCOCCOCCOCCOc3ccc(C(=O)Nc4ccc5[nH]c(*)nc5c4)cc3)cc2)cc1 (repeat unit)
270.00 °C	*c1ccc(OC(=O)c2cccc(C(=O)Oc3ccc(C4(*)C(=O)Nc5c(Cl)cc(Cl)cc54)cc3)c2)cc1 (repeat unit)
280.50 °C	*C(=O)c1ccc2c(c1)C(=O)N(c1ccc(Oc3cccc(N4C(=O)c5ccc(*)cc5C4=O)c3)cc1)C2=O (repeat unit)
252.00 °C	*Oc1ccc(NC(=O)c2cc(NC(=O)c3ccc(OC(C)=O)cc3)cc(C(=O)Nc3ccc(Oc4ccc(-c5ccc(*)cc5)cc4)cc3)c2)cc1 (repeat unit)
258.00 °C	*c1ccc(Sc2cc3c(cc2Sc2ccc(N4C(=O)C5C6C=CC(C7C(=O)N(*)C(=O)C67)C5C4=O)cc2)C(=O)N(CCc2ccccc2)C3=O)cc1 (repeat unit)
98.00 °C	*CCCCCCCCCCCC(=O)Oc1ccc2ccc(OC(=O)c3ccc4c(c3)C(=O)N(*)C4=O)cc2c1 (repeat unit)
205.00 °C	*c1ccc(Oc2cccc(Oc3ccc(N4C(=O)c5ccc(Oc6ccc(-c7ccc(Oc8ccc9c(c8)C(=O)N(*)C9=O)cc7)cc6)cc5C4=O)cc3)c2)cc1 (repeat unit)

glass transition temperature	Compound
97.00 °C	*CCOc1ccc(C2(c3ccc(OCCO[Si](O*)(c4ccccc4)c4ccccc4)cc3)c3ccccc3-c3ccccc32)cc1 (repeat unit)
12.50 °C	*CCOCCOCCOCCOCCOCCOC(=O)c1cc(OCCCCCCOc2ccc(-c3ccc(OC)cc3)cc2)cc(C(=O)O*)c1 (repeat unit)
260.00 °C	*C(=O)c1ccc2c(c1)C(=O)N(c1ccc(Oc3cccc(-c4cc(-c5ccccc5)cc(-c5cccc(Oc6ccc(N7C(=O)c8ccc(*)cc8C7=O)cc6)c5)n4)c3)cc1)C2=O (repeat unit)
211.00 °C	*Oc1ccc(C(C)(C)c2ccc(OC(=O)c3ccc(C(C)(CC)c4ccc(C(*)=O)cc4)cc3)cc2)cc1 (repeat unit)
220.00 °C	*Nc1ccc(Oc2ccc(Nc3ccc4c(c3)c3cc(*)ccc3n4CC(CC)CCCC)cc2)cc1 (repeat unit)
163.00 °C	*Oc1ccc(-c2ccc(OC(=O)c3ccc(Oc4ccc(C5(c6ccc(Oc7ccc(C(*)=O)cc7)cc6)CCC(C(C)(C)C)CC5)cc4)cc3)cc2C)c(C)c1 (repeat unit)
114.00 °C	*c1ccc2c(c1)C(CCCCCC)(CCCCCC)c1cc(-c3ccc4c(c3)C(CC3=NC(Cc5ccccc5)CO3)(CC3=NC(Cc5ccccc5)CO3)c3cc(*)ccc3-4)ccc1-2 (repeat unit)
175.00 °C	*Oc1ccc(S(=O)(=O)c2ccc(Oc3ccc(Sc4ccc(*)cc4)cc3)cc2)cc1 (repeat unit)
280.20 °C	*Oc1ccc(S(=O)(=O)c2ccc(Oc3c(C)cc(-c4cc(C)c(*)c(C)c4)cc3C)cc2)cc1 (repeat unit)
131.00 °C	*Oc1cccc(Oc2ccc(C(=O)Oc3cccc(OC(=O)c4ccc(*)cc4)c3)cc2)c1 (repeat unit)
353.00 °C	*c1ccc(Oc2ccc(-c3cnc4cc5ncc(*)nc5cc4n3)cc2)cc1 (repeat unit)
128.50 °C	*c1ccc(-c2c(-c3ccc(-c4ccccc4)cc3)cc(-c3ccc(OCCCCCCOc4ccc(-c5cc(-c6ccc(-c7ccccc7)cc6)c(-c6ccc(-n7c(=O)c8cc9c(=O)n(*)c(=O)c9cc8c7=O)cc6)c(-c6ccc(-c7ccccc7)cc6)c5)cc4)cc3)cc2-c2ccc(-c3ccccc3)cc2)cc1 (repeat unit)
321.00 °C	*c1ccc(Oc2cc(C(C)(C)C)ccc2Oc2ccc(-n3c(=O)c4cc5c(=O)n(*)c(=O)c5cc4c3=O)cc2)cc1 (repeat unit)
232.00 °C	*c1ccc(Oc2ccc(-n3nc(-c4ccccc4)cc3-c3cccc(-c4cc(-c5ccccc5)nn4*)c3)cc2)cc1 (repeat unit)
266.00 °C	*c1cc(C(c2ccc(O)c(N3C(=O)c4ccc(Oc5ccc6c(c5)C(=O)N(*)C6=O)cc4C3=O)c2)(C(F)(F)F)C(F)(F)F)ccc1O (repeat unit)
131.00 °C	*CC(*)(C)C(=O)NC(=O)OCCOc1ccc(S(=O)(=O)c2ccc(OCCO)cc2)cc1 (repeat unit)
